Experiments:
[1] = target: T1, Histone-lysine N-methyltransferase EHMT2 (Homo sapiens, UniProt Q96KQ7)
T1 sequence (Q96KQ7 whole entry): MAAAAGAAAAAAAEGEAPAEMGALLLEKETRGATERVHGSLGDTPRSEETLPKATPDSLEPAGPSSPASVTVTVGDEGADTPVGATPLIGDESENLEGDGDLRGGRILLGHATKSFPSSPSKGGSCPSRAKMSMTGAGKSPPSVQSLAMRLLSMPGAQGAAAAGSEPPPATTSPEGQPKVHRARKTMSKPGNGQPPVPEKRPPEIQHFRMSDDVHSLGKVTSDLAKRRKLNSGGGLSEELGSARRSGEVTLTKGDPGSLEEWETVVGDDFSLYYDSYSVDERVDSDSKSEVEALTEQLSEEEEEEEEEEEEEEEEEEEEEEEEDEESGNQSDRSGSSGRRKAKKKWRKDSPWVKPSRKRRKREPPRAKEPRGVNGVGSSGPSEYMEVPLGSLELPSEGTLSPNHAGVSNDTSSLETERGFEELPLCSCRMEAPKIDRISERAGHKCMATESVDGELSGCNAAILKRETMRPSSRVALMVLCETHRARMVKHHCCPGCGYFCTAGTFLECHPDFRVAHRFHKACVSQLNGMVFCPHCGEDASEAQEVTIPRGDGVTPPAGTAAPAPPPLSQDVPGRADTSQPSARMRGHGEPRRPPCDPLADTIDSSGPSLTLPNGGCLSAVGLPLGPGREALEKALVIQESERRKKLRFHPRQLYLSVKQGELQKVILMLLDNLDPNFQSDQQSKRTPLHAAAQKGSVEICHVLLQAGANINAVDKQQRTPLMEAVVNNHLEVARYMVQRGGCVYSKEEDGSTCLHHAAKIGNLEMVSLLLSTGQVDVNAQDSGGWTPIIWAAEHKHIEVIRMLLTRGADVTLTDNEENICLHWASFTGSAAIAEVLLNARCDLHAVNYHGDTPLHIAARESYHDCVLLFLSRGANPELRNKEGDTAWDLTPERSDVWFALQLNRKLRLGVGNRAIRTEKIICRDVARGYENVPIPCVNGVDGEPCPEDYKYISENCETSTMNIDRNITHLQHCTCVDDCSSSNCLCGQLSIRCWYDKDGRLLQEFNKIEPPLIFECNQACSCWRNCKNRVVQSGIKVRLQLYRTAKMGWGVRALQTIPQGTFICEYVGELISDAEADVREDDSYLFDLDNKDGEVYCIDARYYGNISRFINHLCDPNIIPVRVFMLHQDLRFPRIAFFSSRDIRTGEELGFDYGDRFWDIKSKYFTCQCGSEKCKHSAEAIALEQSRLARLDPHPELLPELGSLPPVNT
Description: Inhibition of G9a by Thioglo assay

[2] = target: T1, Histone-lysine N-methyltransferase EHMT2; assay: Inhibition of G9a by Alpha screen assay
[3] = target: T2, Histone-lysine N-methyltransferase EHMT2 (Homo sapiens) (UniProt Q96KQ7); assay: Inhibition of G9a at 1 uM by Thioglo assay
T2 sequence (whole entry): T1 sequence (Q96KQ7 whole entry)

[4] = target: Histamine H1 receptor (Homo sapiens) (UniProt P35367); assay: Inhibition of histamine H1 receptor at 1 uM
[5] = target: T3, Muscarinic acetylcholine receptor M2 (Homo sapiens) (UniProt P08172); assay: Inhibition of muscarinic M2 receptor at 1 uM
T3 sequence (whole entry): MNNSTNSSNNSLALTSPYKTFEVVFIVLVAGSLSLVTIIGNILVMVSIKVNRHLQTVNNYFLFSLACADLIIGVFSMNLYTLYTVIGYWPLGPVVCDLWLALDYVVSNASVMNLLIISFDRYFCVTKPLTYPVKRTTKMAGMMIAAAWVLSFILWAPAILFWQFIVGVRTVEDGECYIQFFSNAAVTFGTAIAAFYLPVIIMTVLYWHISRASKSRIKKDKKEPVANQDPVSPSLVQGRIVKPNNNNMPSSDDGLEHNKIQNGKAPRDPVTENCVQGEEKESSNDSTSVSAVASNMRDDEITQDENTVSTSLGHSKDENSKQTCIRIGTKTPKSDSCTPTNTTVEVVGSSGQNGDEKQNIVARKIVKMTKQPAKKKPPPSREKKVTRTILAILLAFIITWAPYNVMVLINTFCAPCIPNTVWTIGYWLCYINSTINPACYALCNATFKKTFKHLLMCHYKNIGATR

Histamine H1 receptor (Homo sapiens), sequence (P35367 whole entry): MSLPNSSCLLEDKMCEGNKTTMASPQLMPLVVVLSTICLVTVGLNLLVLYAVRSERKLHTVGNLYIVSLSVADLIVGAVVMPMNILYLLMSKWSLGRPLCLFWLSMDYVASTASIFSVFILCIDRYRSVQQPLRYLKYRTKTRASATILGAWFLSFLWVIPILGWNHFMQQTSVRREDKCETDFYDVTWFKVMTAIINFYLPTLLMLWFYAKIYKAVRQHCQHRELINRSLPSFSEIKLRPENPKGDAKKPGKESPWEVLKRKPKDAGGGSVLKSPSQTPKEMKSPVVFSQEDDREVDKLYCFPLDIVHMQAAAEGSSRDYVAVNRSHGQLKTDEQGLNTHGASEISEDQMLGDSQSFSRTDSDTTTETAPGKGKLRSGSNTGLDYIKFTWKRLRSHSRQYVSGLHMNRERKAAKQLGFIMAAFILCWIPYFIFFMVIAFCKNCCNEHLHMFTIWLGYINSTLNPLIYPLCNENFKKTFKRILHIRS

| IC50 [1] [µM] | IC50 [2] [µM] | inhibition [3] [%] | inhibition [4] [%] | inhibition [5] [%] | SMILES |
| --- | --- | --- | --- | --- | --- |
| 0.55 | 0.51 | – | – | – | COc1cc2nc(N3CCCCC3)nc(NC3CCN(C)CC3)c2cc1OC |
| – | 9.1 | < 30 | – | – | COc1cc2nc(Cl)nc(NC3CCN(C)CC3)c2cc1OC |
| – | > 10 | < 30 | – | – | COc1cc2nc(N3CCCN(C)CC3)nc(NC3CCNCC3)c2cc1OC |
| – | > 10 | < 30 | – | – | COc1cc2nc(N3CCCN(C)CC3)nc(NC3CCOCC3)c2cc1OC |
| 1.6 | 0.81 | – | – | – | COc1cc2nc(N3CCOCC3)nc(NC3CCN(C)CC3)c2cc1OC |
| – | 5.1 | < 30 | – | – | COc1cc2nc(N3CCCN(C)CC3)nc(NC3CC3)c2cc1OC |
| – | – | – | 31 | 82 | COc1cc2c(NC3CCN(C)CC3)nc(N3CCCN(C)CC3)nc2cc1OCCCN(C)C |
| – | 5.8 | < 30 | – | – | COc1cc2nc(N3CCCN(C)CC3)nc(NC(C)C)c2cc1OC |

From ChEMBL document CHEMBL1154694, “Discovery of a 2,4-diamino-7-aminoalkoxyquinazoline as a potent and selective inhibitor of histone lysine methyltransferase G9a” (J Med Chem, 2009)
